For the test, the target named is FXR (Homo sapiens (Human), UniProt Q96RI1). Put plainly: transient human FXR/Gal4-luciferase reporter assay. The class given is cell-based. Put shortly: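 HEK293 cells stably carrying a 5×Gal4 response element–firefly luciferase reporter were transiently transfected overnight with a Gal4 DBD–human FXR LBD fusion plasmid. Compound was added in DMSO and cells were incubated overnight at 37 °C, 5% CO2. Activity was read as Steady-Glo luminescence.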

[1] abbreviates: Gal4-hFXR fusion construct, HEK293 reporter cells, response relative to 8 μM GW-4064.

Like-named read-outs stand apart in the source and are kept apart here.

This is an account of results in patent US11254663B2 (BRISTOL-MYERS SQUIBB COMPANY, priority 2019, dated 2022).

Sequence of FXR (Q96RI1 262-486): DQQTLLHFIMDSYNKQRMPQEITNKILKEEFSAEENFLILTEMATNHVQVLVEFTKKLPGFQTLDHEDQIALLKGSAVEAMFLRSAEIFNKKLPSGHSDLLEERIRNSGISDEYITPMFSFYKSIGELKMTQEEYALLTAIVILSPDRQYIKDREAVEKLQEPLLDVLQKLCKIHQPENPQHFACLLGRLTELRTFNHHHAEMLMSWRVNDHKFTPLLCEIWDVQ

In turn, `CC(C)(C)c1nc(C23CCC(CN(C(=O)C45CC(F)(C4)C5)c4ccnc(-c5cnc(C6CC6)nc5)c4)(CC2)CC3)no1` [Example 597, N-((4-(5-(tert-butyl)-1,2,4-oxadiazol-3-yl)bicyclo[2.2.2]octan-1-yl)methyl)-N-(2-(2-cyclopropylpyrimidin-5-yl)pyridin-4-yl)-3-fluorobicyclo[1.1.1]pentane-1-carboxamide] came in with an EC50 under setting [1] of 226 nM.

`CC(C)Oc1ccc(-c2cccc(N(CC34CCC(c5cc(C(C)(F)F)n(C)n5)(CC3)CC4)C(=O)OC(C)(C)C(F)(F)F)c2)cc1` [Example 658, 1,1,1-trifluoro-2-methylpropan-2-yl ((4-(5-(1,1-difluoroethyl)-1-methyl-1H-pyrazol-3-yl)bicyclo[2.2.2]octan-1-yl)methyl)(4′-isopropoxy-[1,1′-biphenyl]-3-yl)carbamate] returned an EC50 under setting [1] of 917 nM.

Under setting [1], `CCOc1ncc(-c2ccnc(N(CC34CCC(c5noc(C(C)(C)C)n5)(CC3)CC4)C(=O)C34CC(F)(C3)C4)c2)cn1` [Example 531, N-((4-(5-(tert-butyl)-1,2,4-oxadiazol-3-yl)bicyclo[2.2.2]octan-1-yl)methyl)-N-(4-(2-ethoxypyrimidin-5-yl)pyridin-2-yl)-3-fluorobicyclo[1.1.1]pentane-1-carboxamide] came in with an EC50 of 159 nM.

The compound `COc1ccc(-c2cccc(N(CC34CCC(c5cnc(C(F)(F)F)nc5)(CC3)OC4)C(=O)C34CC(F)(C3)C4)c2)cc1` [Example 420, 3-fluoro-N-(4′-methoxy-[1,1′-biphenyl]-3-yl)-N-((1-(2-(trifluoromethyl)pyrimidin-5-yl)-2-oxabicyclo[2.2.2]octan-4-yl)methyl)bicyclo[1.1.1]pentane-1-carboxamide] gave an EC50 under setting [1] of 802 nM.

`CC1(c2nc(C34CCC(CN(C(=O)C56CC(F)(C5)C6)c5cccc(-c6cnc(C7CC7)nc6)c5)(CC3)CC4)no2)CC1` [Example 403, N-(3-(2-cyclopropylpyrimidin-5-yl)phenyl)-3-fluoro-N-((4-(5-(1-methylcyclopropyl)-1,2,4-oxadiazol-3-yl)bicyclo[2.2.2]octan-1-yl)methyl)bicyclo[1.1.1]pentane-1-carboxamide]: under setting [1], the EC50 was 100 nM.

Compound `COc1ncc(-c2cccc(N(CC34CCC(c5ccc(C(F)(F)F)cn5)(CC3)CC4)C(=O)C34CC(F)(C3)C4)c2)cn1` [Example 494, 3-fluoro-N-(3-(2-methoxypyrimidin-5-yl)phenyl)-N-((4-(5-(trifluoromethyl)pyridin-2-yl)bicyclo[2.2.2]octan-1-yl)methyl)bicyclo[1.1.1]pentane-1-carboxamide] displayed an EC50 of 516 nM.

`CC(C)(C)NC(=O)N(CC12CCC(c3noc(C(F)(F)F)n3)(CC1)CC2)c1cccc(-c2ccc(C(C)(C)OC(F)F)cc2)c1` [Example 613, 3-(tert-butyl)-1-(4′-(2-(difluoromethoxy)propan-2-yl)-[1,1′-biphenyl]-3-yl)-1-((4-(5-(trifluoromethyl)-1,2,4-oxadiazol-3-yl)bicyclo[2.2.2]octan-1-yl)methyl)urea] yielded an EC50 under setting [1] of 79 nM.

For `CC(C)(OC(=O)N(CC12CCC(c3noc(C4(F)CC4)n3)(CC1)CC2)c1cc(-c2ccc(OC(F)F)cc2)ccn1)C(F)(F)F` [Example 624, 1,1,1-trifluoro-2-methylpropan-2-yl(4-(4-(difluoromethoxy)phenyl)pyridin-2-yl)((4-(5-(1-fluorocyclopropyl)-1,2,4-oxadiazol-3-yl)bicyclo[2.2.2]octan-1-yl)methyl)carbamate], under setting [1], the EC50 is 50 nM.

Compound `CC(C)(F)c1nc(C23CCC(CN(C(=O)C45CC(F)(C4)C5)c4cccc(-c5cn[nH]c(=O)c5)c4)(CC2)CC3)no1` [Example 594, 3-fluoro-N-((4-(5-(2-fluoropropan-2-yl)-1,2,4-oxadiazol-3-yl)bicyclo[2.2.2]octan-1-yl)methyl)-N-(3-(6-oxo-1,6-dihydropyridazin-4-yl)phenyl)bicyclo[1.1.1]pentane-1-carboxamide] gave an EC50 under setting [1] of 1840 nM.

Under setting [1], `CC(C)c1noc(C23CCC(CN(C(=O)C45CC(F)(C4)C5)c4cccc(-c5cnc(C(F)(F)F)nc5)c4)(CC2)CC3)n1` [Example 384, 3-fluoro-N-((4-(3-isopropyl-1,2,4-oxadiazol-5-yl)bicyclo[2.2.2]octan-1-yl)methyl)-N-(3-(2-(trifluoromethyl)pyrimidin-5-yl)phenyl)bicyclo[1.1.1]pentane-1-carb oxamide] had an EC50 of 184 nM.

For `COc1cnc(-c2cccc(N(CC34CCC(c5nc(C6CC6)no5)(CC3)CC4)C(=O)C34CC(F)(C3)C4)c2)nc1` [Example 334, N-((4-(3-cyclopropyl-1,2,4-oxadiazol-5-yl)bicyclo[2.2.2]octan-1-yl)methyl)-3-fluoro-N-(3-(5-methoxypyrimidin-2-yl)phenyl)bicyclo[1.1.1]pentane-1-carboxamide], a half-maximal response under setting [1] (EC50) required 77 nM.

As to `Cc1nc2ccc(-c3cccc(N(CC45CCC(c6nnc(C7CC7)o6)(CC4)CC5)C(=O)C45CC(F)(C4)C5)c3)cc2s1` [Example 561, N-((4-(5-cyclopropyl-1,3,4-oxadiazol-2-yl)bicyclo[2.2.2]octan-1-yl)methyl)-3-fluoro-N-(3-(2-methylbenzo[d]thiazol-6-yl)phenyl)bicyclo[1.1.1]pentane-1-carboxamide], the half-maximal effective concentration (EC50) under setting [1] was 58 nM.

In turn, `CCOc1ccc(-c2cccc(N(CC34CCC(c5ccc(C(F)(F)F)cn5)(CC3)CC4)C(=O)C34CC(F)(C3)C4)c2)cn1` [Example 492, N-(3-(6-ethoxypyridin-3-yl)phenyl)-3-fluoro-N-((4-(5-(trifluoromethyl)pyridin-2-yl)bicyclo[2.2.2]octan-1-yl)methyl)bicyclo[1.1.1]pentane-1-carboxamide] registered an EC50 of 567 nM.

In the case of `O=C(N(CC12CCC(c3nc(C4CC4)no3)(CC1)CC2)c1cccc(-c2ccc3nc(O)ccc3c2)c1)C12CC(F)(C1)C2` [Example 331, N-((4-(3-cyclopropyl-1,2,4-oxadiazol-5-yl)bicyclo[2.2.2]octan-1-yl)methyl)-3-fluoro-N-(3-(2-hydroxyquinolin-6-yl)phenyl)bicyclo[1.1.1]pentane-1-carboxamide], a half-maximal response under setting [1] (EC50) required 231 nM.

Under setting [1], `CCOc1ccc(-c2cncc(N(CC34CCC(c5nc(C6CC6)no5)(CC3)CC4)C(=O)C34CC(F)(C3)C4)c2)cn1` [Example 426, N-((4-(3-cyclopropyl-1,2,4-oxadiazol-5-yl)bicyclo[2.2.2]octan-1-yl)methyl)-N-(6′-ethoxy-[3,3′-bipyridin]-5-yl)-3-fluorobicyclo[1.1.1]pentane-1-carboxamide] had an EC50 of 417 nM.

`O=C(N(CC12CCC(c3noc(C(F)(F)F)n3)(CC1)CC2)c1cccc(-c2cnc(C3CC3)nc2)c1)C12CC(F)(C1)C2` [Example 580, N-(3-(2-cyclopropylpyrimidin-5-yl)phenyl)-3-fluoro-N-((4-(5-(trifluoromethyl)-1,2,4-oxadiazol-3-yl)bicyclo[2.2.2]octan-1-yl)methyl)bicyclo[1.1.1]pentane-1-carboxamide]: the half-maximal effective concentration (EC50) under setting [1] amounted to 160 nM.

Under setting [1], `CC1(c2nc(C34CCC(CN(C(=O)C56CC(F)(C5)C6)c5cccc(-c6cnc(C(F)(F)F)nc6)c5)(CC3)CC4)no2)CC1` [Example 404, 3-fluoro-N-((4-(5-(1-methylcyclopropyl)-1,2,4-oxadiazol-3-yl)bicyclo[2.2.2]octan-1-yl)methyl)-N-(3-(2-(trifluoromethyl)pyrimidin-5-yl)phenyl)bicyclo[1.1.1]pentane-1-carboxamide] gave an EC50 of 221 nM.

Under setting [1], `COc1cc(-c2cccc(N(CC34CCC(C(=O)NC5CC5)(CC3)CC4)C(=O)C34CC(F)(C3)C4)c2)ccn1` [Example 570, N-cyclopropyl-4-((3-fluoro-N-(3-(2-methoxypyridin-4-yl)phenyl)bicyclo[1.1.1]pentane-1-carboxamido)methyl)bicyclo[2.2.2]octane-1-carboxamide] registered a 50% effective concentration (EC50) of 926 nM.

In the case of `CS(=O)(=O)Nc1ccc(-c2cccc(N(CC34CCC(c5ccc(C(F)(F)F)cn5)(CC3)CC4)C(=O)C34CC(F)(C3)C4)c2)cc1` [Example 488, 3-fluoro-N-(4′-(methylsulfonamido)-[1,1′-biphenyl]-3-yl)-N-((4-(5-(trifluoromethyl)pyridin-2-yl)bicyclo[2.2.2]octan-1-yl)methyl)bicyclo[1.1.1]pentane-1-carboxamide], it took 876 nM to reach a half-maximal effect (EC50).

`N#Cc1cc2sccc2nc1-c1cccc(N(CC23CCC(c4nc(C5CC5)no4)(CC2)CC3)C(=O)C23CC(F)(C2)C3)c1` [Example 316, N-(3-(6-cyanothieno[3,2-b]pyridin-5-yl)phenyl)-N-((4-(3-cyclopropyl-1,2,4-oxadiazol-5-yl)bicyclo[2.2.2]octan-1-yl)methyl)-3-fluorobicyclo[1.1.1]pentane-1-carboxamide] displayed an EC50 under setting [1] of 138 nM.

Consider `O=C(N(CC12CCC(c3nc(C4CC4)no3)(CC1)CC2)c1cccc(-c2ccc(NS(=O)(=O)C3CC3)cc2)c1)C12CC(F)(C1)C2` [Example 269, N-(4′-(cyclopropanesulfonamido)-[1,1′-biphenyl]-3-yl)-N-((4-(3-cyclopropyl-1,2,4-oxadiazol-5-yl)bicyclo[2.2.2]octan-1-yl)methyl)-3-fluorobicyclo[1.1.1]pentane-1-carboxamide], for which the EC50 under setting [1] is 142 nM.

`CC(C)(O)c1ccc(-c2nccc(N(CC34CCC(c5noc(C(C)(C)F)n5)(CC3)CC4)C(=O)OC(C)(C)C(F)(F)F)n2)cc1` [Example 635, 1,1,1-trifluoro-2-methylpropan-2-yl ((4-(5-(2-fluoropropan-2-yl)-1,2,4-oxadiazol-3-yl)bicyclo[2.2.2]octan-1-yl)methyl)(2-(4-(2-hydroxypropan-2-yl)phenyl)pyrimidin-4-yl) carbamate] returned an EC50 under setting [1] of 1280 nM.

In turn, `CC(C)(C)c1noc(C23CCC(CN(C(=O)C45CC(F)(C4)C5)c4cncc(-c5ccc(NS(C)(=O)=O)cc5)c4)(CC2)CC3)n1` [Example 475, N-((4-(3-(tert-butyl)-1,2,4-oxadiazol-5-yl)bicyclo[2.2.2]octan-1-yl)methyl)-3-fluoro-N-(5-(4-(methylsulfonamido)phenyl)pyridin-3-yl)bicyclo[1.1.1]pentane-1-carboxamide] gave an EC50 of 1600 nM.
